US20260240869A1, “ANTIPSEUDOMONAL FUSIDIC ACID COMPOUNDS” (priority 2022, published 2026)
≈ marks a conversion by molar mass, not a printed value. Where two headings read alike, the source gives them in different places.

Tests used:
[1] = test system: P. aeruginosa PAΔ6; test: LC-MS/MS whole-cell accumulation assay, PAΔ6; format: cell-based, Pseudomonas aeruginosa; conditions: for change of accumulation in efflux pump knockout PAΔ6 versus WT PAO1: FIG. 1c; for Fold change (Accum): PAΔ6 Accum / WT Accum (Table 7); for PAΔ6 Accum: ± s.e.m. (Table 7)
Description: (§1) Accumulation Assay. The accumulation assay was performed in triplicate in batches of ten samples, with each batch containing tetracycline or ciprofloxacin as a positive control. P. aeruginosa PAO1, PAO1 A6, PA14, PA14 A40, and PA1280, and E. coli MG1655 were used in these experiments. For each replicate, 2.5 mL (E. coli) or 5 mL (P. aeruginosa) of an overnight culture was diluted into 250 mL of fresh Luria-Bertani broth (Lennox) or Tryptic Soy Broth (TSB) and grown at 37° C. with shaking to an optical density (OD600) of 0.55-0.60. The bacteria were pelleted at 3220 r.c.f. for 10 min at 4° C., and the supernatant was discarded. The pellets were resuspended in 40 mL of phosphate buffered saline (PBS) and pelleted as before, and the supernatant was discarded. The pellets were resuspended in 8.8 mL of fresh PBS and aliquoted into ten, 1.5 mL Eppendorf tubes (875 μL each). The number of colony-forming units (CFUs) was determined by a calibration curve. The samples were equilibrated at 37° C. with shaking for 5 min; compound was added (final concentration=50 μM), and then the samples were incubated at 37° C. with shaking for either 10 min. These time points were short enough to minimize metabolic and growth changes (no changes in OD600 or CFU count observed). After incubation, 800 μL of the cultures was carefully layered on 700 μL of silicone oil (9:1 AR20/Sigma High Temperature, cooled to −78° C.). Bacteria were pelleted through the oil by centrifuging at 13 000 r.c.f. for 2 min at room temperature (with the supernatant remaining above the oil); the supernatant and oil were then removed by pipetting. To lyse the samples, each pellet was dissolved in […] of water, and then, they were subjected to three (E. coli) or four (P. aeruginosa) freeze-thaw cycles of 3 min in liquid nitrogen followed by 3 min in a water bath at 65° C. P. aeruginosa samples were then treated with 50 µM DNase and RNase and incubated at 37° C. for 15 minutes. The lysates were pelleted at 13 000 r.c.f. for 2 min at room temperature, and the supernatant was collected ([…]). The debris was resuspended in 100 μL of methanol and pelleted as before. The supernatants were removed and combined with the previous supernatants collected. Finally, the remaining debris was removed by centrifuging at 20 000 r.c.f. for 10 min at room temperature. Supernatants were analyzed by LC-MS/MS.
(§2) Samples were analyzed with the 5500 QTRAP LC/MS/MS system (AB Sciex) with a 1200 series HPLC system (Agilent Technologies) including a degasser, an autosampler, and a binary pump. Liquid chromatography separation was performed on an Agilent SB-Aq column (4.6×50 mm, 5 μm) (Agilent Technologies) with mobile phase A (0.1% formic acid in water) and mobile phase B (0.1% formic acid in acetonitrile). The flow rate was 0.3 mL/min. The linear gradient was as follows: 0-3 min, 100% mobile phase A; 10-15 min, 2% mobile phase A; 15.5-21 min, 100% mobile phase A. The autosampler was set at 5° C. The injection volume was 15 μL. Mass spectra were acquired with both positive electrospray ionization at the ion spray voltage of 5500 V and negative electrospray ionization at the ion spray voltage of −4500 V. The source temperature was 450° C. The curtain gas, ion source gas 1, and ion source gas 2 were 33, 50, and 65, respectively. Multiple reaction monitoring was used to quantify the metabolites. Power analysis was not used to determine the number of replicates. Error bars represent the standard error of the mean of three biological replicates. The statistical significance of the accumulation was determined using a two sample Welch's t test (one-tailed test, assuming unequal variance) relative to the negative controls. All compounds evaluated in the biological assays were >95% pure.

[2] = test system: P. aeruginosa PAO1; test: LC-MS/MS whole-cell accumulation assay, P. aeruginosa PAO1; format: cell-based, Pseudomonas aeruginosa; conditions: for WT Accum: WT PAO1, ± s.e.m. (Table 7); for PA accum.: P. aeruginosa, value ± s.e.m. (Chart 2)
Description: as §1, §2
MBN assay. Assays measuring permeabilization by polymyxin B nonapeptide (PMBN) were performed as above, with the addition of 8 μg/mL PMBN immediately before the compound of interest was added.

[3] = test system: P. aeruginosa PAO1; test: MIC, CLSI broth microdilution, P. aeruginosa PAO1; format: cell-based, Pseudomonas aeruginosa; conditions: for MIC: Pseudomonas aeruginosa
Description: (§3) Antimicrobial Susceptibility Tests. Susceptibility testing was performed in biological triplicate, using the microdilution broth method as outlined by the Clinical and Laboratory Standards Institute. Bacteria were cultured with cation-adjusted Meuller-Hinton broth (Sigma-Aldrich; catalogue number: 90922) or Luria-Bertani (LB) broth (Lennox) in round-bottom 96-well plates (Corning; catalogue number: 3788).

[4] = test system: P. aeruginosa PAΔ6; test: MIC, efflux pump knockout strain PAΔ6; format: cell-based, Pseudomonas aeruginosa; conditions: for Fold change: MIC ratio WT PAO1 / PAΔ6 (Table 2); for Fold change (MIC): WT MIC / PAΔ6 MIC (Table 7)
Description: as §3

[5] = test system: E. coli MG1655; test: LC-MS/MS whole-cell accumulation assay, E. coli MG1655; format: cell-based; conditions: for EC accum.: E. coli, value ± s.e.m. (Chart 2)
Description: as §1, §2

[6] = test system: E. coli MG1655; test: MIC, E. coli MG1655; format: cell-based; conditions: Escherichia coli, MG1655; CLSI (Table 8); read-out: E. coli MG1655 MIC
Description: as §3

[7] = test system: WT EC; conditions: retrospective literature analysis (Table 6); cited from earlier work
[8] = test system: tolC EC; conditions: retrospective literature analysis (Table 6); cited from earlier work
[9] = test system: WT PA; conditions: retrospective literature analysis (Table 6); cited from earlier work
[10] = efflux pump KO strain, MH or LB broth (Table 2)
[11] = WT P. aeruginosa PAO1, MH or LB broth (Table 7), read-out: WT MIC

C=C[C@]1(C)C[C@@H](OC(=O)CSC(C)(C)CNC(=O)[C@H](N)C(C)C)[C@]2(C)[C@H](C)CC[C@]3(CCC(=O)[C@H]32)[C@@H](C)[C@@H]1O [Valnemulin]
change of accumulation in efflux pump knockout PAΔ6 versus WT PAO1 [1]: increase in accumulation | change of accumulation upon membrane permeabilization ([2]; treatment with PMBN, FIG. 1b): significant increase in accumulation | MIC ([3]; PAO1, read-out: PAO1 MIC): 256 µg/mL (≈ 453 µM) | MIC ([3]; PAO1, read-out: WT MIC): 256 µg/mL (≈ 453 µM) | PAO1 + PMBN MIC ([3]; co-treatment of 8 μg/mL of PMBN, MH broth): 1 µg/mL | Fold change [4]: 2048 | PAΔ6 MIC [4, 10]: 0.125 µg/mL

COc1cc(Cc2cnc(N)nc2N)cc(OC)c1OC [Trimethoprim]
Fold change (Accum) [1]: 2.6 | PAΔ6 Accum [1]: 356 ± 28 nmol/10^12 CFUs | WT Accum [2]: 136 ± 11 nmol/10^12 CFUs | MIC [3, 11]: > 512 µg/mL | PAΔ6 MIC ([4]; MH or LB broth (Table 7)): 2 µg/mL | Fold change (MIC) [4]: >256

Cc1cc(NS(=O)(=O)c2ccc(N)cc2)no1 [Sulfamethoxazole]
Fold change (Accum) [1]: 4.2 | PAΔ6 Accum [1]: 420 ± 15 nmol/10^12 CFUs | WT Accum [2]: 101 ± 26 nmol/10^12 CFUs | MIC [3, 11]: > 64 µg/mL | PAΔ6 MIC ([4]; MH or LB broth (Table 7)): 4 µg/mL | Fold change (MIC) [4]: >16

Cn1cc(C2=C(c3c4n(c5ccccc35)CC[C@H](CN)C4)C(=O)NC2=O)c2ccccc21 [Compound 55]
EC accum. [5]: 17 ± 7 nmol/10^12 CFUs | PA accum. [2]: 1193 ± 27 nmol/10^12 CFUs

CC(=O)O[C@H]1C[C@@]2(C)[C@@H](C[C@@H](O)[C@H]3[C@@]4(C)CC[C@@H](O)[C@@H](C)[C@@H]4CC[C@@]32C)/C1=C(\CCC=C(C)C)C(=O)O/N=C(\N)CN [FA prodrug 1]
EC Accumulation (FA) ([5]; E. coli MG1655, accumulation of FA reported (Table 8)): 850 ± 61 nmol/1012 CFUs | MIC [6]: > 256 µg/mL | MIC ([3]; PAO1, CLSI (Table 8), read-out: P. aeruginosa PAO1 MIC): > 256 µg/mL

CC(=O)O[C@H]1C[C@@]2(C)[C@@H](C[C@@H](O)[C@H]3[C@@]4(C)CC[C@@H](O)[C@@H](C)[C@@H]4CC[C@@]32C)/C1=C(\CCC=C(C)C)C(=O)NCCCNCCCNCCCN [FA polyamine]
increase in accumulation relative to FA ([2]; text b129): 30 -fold | antibacterial activity (in words) ([3]; Chart 6, strain not given): no longer has potent antibacterial activity

O=C(N[C@H](CO)[C@H](O)c1ccc([N+](=O)[O-])cc1)C(Cl)Cl [Chloramphenicol]
change of accumulation in efflux pump knockout PAΔ6 versus WT PAO1 [1]: increase in accumulation | Fold change (Accum) [1]: 4.4 | PAΔ6 Accum [1]: 537 ± 19 nmol/10^12 CFUs | WT Accum [2]: 122 ± 23 nmol/10^12 CFUs | MIC ([3]; WT P. aeruginosa PAO1, MH or LB broth (Table 2), read-out: WT MIC): > 512 µg/mL | WT MIC ([3]; WT P. aeruginosa PAO1, MH or LB broth (Table 7)): >512 µg/mL | PAΔ6 MIC ([4]; MH or LB broth (Table 7)): 4 µg/mL | Fold change [4]: >128 | Fold change (MIC) [4]: >128 | PAΔ6 MIC [4, 10]: 4 µg/mL

Cc1nc(-c2ccc(C(C)(C)C)cc2)ncc1C(=O)N[C@@H](CCN)C(=O)N(C)[C@@H]1C(=O)N[C@@H](C)C(=O)N[C@H](C(=O)NCC#N)Cc2ccc(OCCN)c(c2)-c2cc1ccc2OCCN [Compound G0775]
WT EC MIC [7]: 0.125 µg/mL | tolC EC MIC [8]: 0.063 µg/mL | WT PA MIC [9]: 2 µg/mL

NCCCCCCNS(=O)(=O)c1cccc2ccccc12 [Compound 54]
EC accum. [5]: 108 ± 17 nmol/10^12 CFUs | PA accum. [2]: 399 ± 63 nmol/10^12 CFUs

Cc1ccc2c(C)c3c(c(O)c2c1O)C(=O)[C@]1(O)C(=O)C(C(N)=O)=C(O)[C@H](N)[C@@H]1C3 [CDCHD]
tolC EC MIC [8]: 0.25 µg/mL | WT PA MIC [9]: 1 µg/mL

Cc1ccc(C(=O)N(CCCN)[C@@H](c2nc3cc(Cl)ccc3c(=O)n2Cc2ccccc2)C(C)C)cc1 [Compound 56]
EC accum. [5]: 244 ± 31 nmol/10^12 CFUs | PA accum. [2]: 658 ± 113 nmol/10^12 CFUs

N#Cc1ccc(-c2cncc3c2CCCC3N)cc1 (centres unmarked) [Compound 52]
EC accum. [5]: 929 ± 39 nmol/10^12 CFUs | PA accum. [2]: 161 ± 12 nmol/10^12 CFUs
